The values below are quoted from earlier work in US20240228667A9, “Methods for Treating Multiple Myeloma” (Celgene Corporation, priority 2021, published 2024).

The data set concerns acute myeloid leukemia (AML) at relapse. The conditions noted are these: CT-011 administered alone.

On to “CT-011: anti-PD-1 antibody, a humanized antibody”, for which the “response in treating acute myeloid leukemia (AML) at relapse” value is reported as “failed to show response”.
